According to patent publication US11807693B2 (priority 2014, dated 2023):
Non-standard residues stand in square brackets, D forms with d. Residues, ends and D or L forms follow the SMILES beside them. ξ: configuration not given here. dBip = N[C@H](Cc1ccc(-c2ccccc2)cc1)C(=O)O; Oic(3aξ,7aξ) = O=C(O)[C@@H]1CC2CCCCC2N1; Phe(4-I) = N[C@@H](Cc1ccc(I)cc1)C(=O)O; hArg = N=C(N)NCCCC[C@H](N)C(=O)O; NMeL = CN[C@@H](CC(C)C)C(=O)O

Key:
[1] = tested on: isolated perfused rat hearts; assay: Langendorff isolated perfused rat heart; settings: FIGS. 4A-D and 5A-D
Excerpt: To assess the hemodynamic cardiac function of the peptides, a Langendorff isolated heart system was used. The isolated heart from rat provides a broad spectrum of measurements that can include biochemical, metabolic, morphological and physiological indices. Although the system lacks neurohormonal influences, neural regulation and high coronary flows, the advantages of the system include the ability to study direct cardiac effects without systemic circulation and a host of peripheral interactions. This method can yield excellent dose-response relationships and provides critical insight into the pharmacological and physiological properties of the molecules of interest.
Animals were anesthetized through administration of 50-100 mg/kg dose of sodium pentobarbital via the intraperitoneal route. The heart was excised and gently cradled between fingers to avoid injury followed by lifting slightly before incising the aorta, vena cava and pulmonary vessels. Immediately after excision of the heart with aorta, the heart was mounted onto the cannula in the Langendorff apparatus via the aorta. […] The pressure was measured through a pressure sensing balloon catheter inserted in the left ventricular cavity. The intrinsic inotropy (force of muscle contraction) and lusitropy (cardiac relaxation) effects of the heart were assessed by dp/dtmax and dp/dtmin.

[2] = liver homogenate; settings: rat, 37° C., up to 4 hr
[3] = kidney homogenate; settings: rat, 37° C., up to 4 hr
[4] = tested on: Rat Peritoneal Mast Cells
[5] = tested on: rats with myocardial infarction (MI)-induced heart failure; assay: Hemodynamics in rats with MI-induced heart failure (Millar PV loop); assay type: in vivo, Lewis rats; settings: continuous i.v. infusion, 30 min per dose
Method: To assess the cardiovascular effects of modified apelin polypeptides, the polypeptides were administered to rats with myocardial infarction (MI)-induced heart failure. Cardiac function was assessed via the Millar PV loop system.
Male Lewis rats at 2-3 month of age were used for the studies. MI was induced by ligation of the left anterior descending coronary artery (LAD). Echocardiography was performed at 1 week post-MI for animal enrollment. If ejection fraction (EF) was more than 40% and no infarct was identified from echocardiography images, these animals were excluded from the study. A Millar PV loop catheter was inserted into the right common carotid artery and then advanced to the left ventricle (LV) for cardiovascular hemodynamic assessment. The arterial pressure catheter was inserted into a femoral artery for peripheral blood pressure monitoring. Experiments were performed six to seven weeks following induction of MI. The following apelin polypeptides were given intravenously via jugular vein at various doses.
Peptides were continuously infused for 30 min at each dose. At the end of the experiment, the infarct size was verified by gross morphology. FIGS. 6-8 show the results of these experiments. The infarct size (38-39% of LV) was very similar among groups. […] Contractility (dp/dt max), ejection fraction (EF), mean arterial pressure (MAP), and heart rate (HR) changes over baseline are reported at the end of the 30 min infusion period for each polypeptide.

not cleaved [2] [% remaining at 4 hours] | not cleaved [3] [% remaining at 4 hours] | Molecule | systolic and diastolic function in isolated perfused rat hearts [1] | also measured
– | – | CC(=O)N[C@@H](CCC(N)=O)C(=O)N[C@@H](CCCCNC(=N)N)C(=O)N1CCC[C@H]1C(=O)N[C@H](CCCNC(=N)N)C(=O)N(C)[C@@H](CC(C)C)C(=O)N[C@@H](CO)C(=O)N[C@@H](Cc1c[nH]cn1)C(=O)N[C@@H](CCCCN)C(=O)NCC(=O)N1C2CCCCC2C[C@H]1C(=O)N[C@@H](Cc1ccc(I)cc1)C(=O)N1CCC[C@H]1C(=O)N[C@H](Cc1ccc(-c2ccccc2)cc1)C(=O)O (stereo partly drawn) [SEQ ID NO: 53, {Acetyl-NH}Q[hArg]Pr[NMeLeu]SHKG[Oic][pI-Phe]P[D-Bip]{COOH}] (Ac-Q[hArg]P[dR][NMeL]SHKG[Oic(3aξ,7aξ)][Phe(4-I)]P[dBip]-OH) | dose-dependent improvement of both systolic and diastolic function | –
– | – | CC(=O)N[C@@H](CCCCNC(=N)N)C(=O)N[C@H](CCCNC(=N)N)C(=O)N[C@@H](CCC(N)=O)C(=O)N[C@@H](CCCCNC(=N)N)C(=O)N1CCC[C@H]1C(=O)N[C@H](CCCNC(=N)N)C(=O)N(C)[C@@H](CC(C)C)C(=O)N[C@@H](CO)C(=O)N[C@@H](Cc1c[nH]cn1)C(=O)N[C@@H](CCCCN)C(=O)NCC(=O)N1C2CCCCC2C[C@H]1C(=O)N[C@@H](Cc1ccc(I)cc1)C(=O)N1CCC[C@H]1C(=O)N[C@H](Cc1ccc(-c2ccccc2)cc1)C(=O)O (stereo partly drawn) [SEQ ID NO: 16, Acetyl-[hArg][r]Q[hArg]P[r][NMeLeu]SHKG[Oic][pI-Phe]P[D-Bip]{COOH}] (Ac-[hArg][dR]Q[hArg]P[dR][NMeL]SHKG[Oic(3aξ,7aξ)][Phe(4-I)]P[dBip]-OH) | dose-dependent improvement of both systolic and diastolic function | –
>90.0 | >90.0 | {H2} [MerPr] (10K mPEG acetamide) Q R [aMePro] [hArg] [aMeLeu] S H K G P [Nle] P [4-Cl-F] {COOH} | – | –
>90.0 | >90.0 | {TDA}[AC4Abu][Aeea][Aeea]RQRP[hArg][NMeLeu]SHKG[Oic][pI-Phe]P[D-Bip]{COOH} | – | –
– | – | CSCC[C@H](NC(=O)[C@@H]1CCCN1C(=O)CNC(=O)[C@H](CCCCN)NC(=O)[C@H](Cc1cnc[nH]1)NC(=O)[C@H](CO)NC(=O)[C@H](CC(C)C)NC(=O)[C@H](CCCNC(=N)N)NC(=O)[C@@H]1CCCN1C(=O)[C@H](CCCNC(=N)N)NC(=O)[C@@H]1CCC(=O)N1)C(=O)N1CCC[C@H]1C(=O)N[C@@H](Cc1ccccc1)C(=O)O [SEQ ID NO: 6, reference compound] | – | Cause Histamine Release? [4]: No; hemodynamic function (dp/dt max, EF, MAP, HR) in MI rats [5]: dose-dependent effects
